Values joined by “and” are separate entries in the source; they are usually repeats but may differ in a detail not shown here. Equal values may be shown once. Read-outs that look alike come from different tables or passages of the source.
B1: recombinant full-size human Wip1 enzyme with His-Tag on the NH2 terminus (protein)
chain: MAGLYSLGVSVFSDQGGRKYMEDVTQIVVEPEPTAEEKPSPRRSLSQPLPPRPSPAALPGGEVSGKGPAVAAREARDPLPDAGASPAPSRCCRRRSSVAFFAVCDGHGGREAAQFAREHLWGFIKKQKGFTSSEPAKVCAAIRKGFLACHLAMWKKLAEWPKTMTGLPSTSGTTASVVIIRGMKMYVAHVGDSGVVLGIQDDPKDDFVRAVEVTQDHKPELPKERERIEGLGGSVMNKSGVNRVVWKRPRLTHNGPVRRSTVIDQIPFLAVARALGDLWSYDFFSGEFVVSPEPDTSVHTLDPQKHKYIILGSDGLWNMIPPQDAISMCQDQEEKKYLMGEHGQSCAKMLVNRALGRWRQRMLRADNTSAIVICISPEVDNQGNFTNEDELYLNLTDSPSYNSQETCVMTPSPCSTPPVKSLEEDPWPRVNSKDHIPALVRSNAFSENFLEVSAEIARENVQGVVIPSKDPEPLEENCAKALTLRIHDSLNNSLPIGLVPTNSTNTVMDQKNLKMSTPGQMKAQEIERTPPTNFKRTLEESNSGPLMKKHRRNGLSRSSGAQPASLPTTSQRKNSVKLTMRRRLRGQKKIGNPLLHQHRKTVCVC

What was measured:
[1] = biological target: recombinant Wip1 (Homo sapiens, UniProt O15297); conditions: for relative effectiveness as Wip1 inhibitor (in words): at the concentration of 0.25 μM;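 for all read-outs here: recombinant His-tagged Wip1 dephosphorylating a phosphoserine peptide for 1 h at 30 °C, read by fluorescence quench (ex 560, em 590 nm), signal rising with dephosphorylation, DMSO-only reactions as control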
From the text: Phosphatase activity of Wip1 was monitored with IQ™ Phosphatase Assay Kit (Pierce, Rockford, Ill.). […] At the end of phosphatase reaction, the labeled peptide population contains a mixture of phosphorylated and nonphosphorylated peptide species. The iron-containing compound binds specifically to the phosphorylated peptide present and its fluorescence is quenched. The observed relative fluorescence units increase in proportion to the extent of dephosphorylation of the phosphopeptide. The standard phosphatase assay was performed by incubating 0.2 μg recombinant Wip1 in the buffer, containing 20 mM MOPS, pH 7.0, 20 mM MgCl2, and 30 μM of phosphoserine peptide substrate (LRRApSLG) at 30° C. for 1 hour. The reaction was terminated by addition of 60 μl IQ™ Working Solution. Fluorescent intensity was measured on the Fluorometer at 560/590 ex/em. Compounds (2 ml) from a chemical library of potential Wip1 inhibitors dissolved in 50% DMSO were added to fmal concentration of 10, 1, 0.5, or 0.2 μM. Control reactions contained only 6% DMSO.
Wip1 activity was measured in the presence of 1990 chemical compounds, 10 μM final concentration each.

[2] = test system: phosphatase PP2A
[3] = biological target: T1, phosphoserine peptide substrate (LRRApSLG)
T1 chain: LRRASLG

[4] = compound at 0.25 μm, DMSO control 740
[5] = compound at 0.5 μm, DMSO control 740
[6] = compound at 1 μm, DMSO control 725
[7] = compound at 10 μm, DMSO control 1400

| Molecule | Wip1 Activity [1, 4] [light units @ 590 nm] | Wip1 Activity [1, 5] [light units @ 590 nm] | Wip1 Activity [1, 6] [light units @ 590 nm] | Wip1 Activity [1, 7] [light units @ 590 nm] | also measured |
| --- | --- | --- | --- | --- | --- |
| O=[N+]([O-])c1ccc(S(=O)(=O)Cc2ccccc2)c2nonc12 [Compound A] | 745 | 725 | 250 | 0 |  |
| O=C(O)C=Cc1ccc[c]([Sb](=[O])([OH])[OH])c1 [Compound B] | 740 | 723 | 575 | 0 |  |
| Nc1nc(Sc2ccc([N+](=O)[O-])c3nonc23)c2nc[nH]c2n1 [Compound C] | 745 | 750 | 610 | 0 |  |
| CN(C)CN1CSC(=S)N(CN(C)C)C1 [Compound D] | 750 | 740 | 595 | 0 |  |
| CC(=NN=C([S-])SCc1ccccc1)c1ccccn1.[Cl-].[Cu+2] [Compound F] | 740 | 695 | 100 | 0 |  |
| Nc1nc([S][Hg][c]2cc([N+](=O)[O-])ccc2O)c2ncn(C3OC(CO)C(O)C3O)c2n1 (centres unmarked) [Compound H] | 675 | 690 | 225 | 0 |  |
| O=C(O)c1c(Br)c(Br)c(Br)c(Br)c1C1c2ccc(O)cc2Oc2cc(O)ccc21 [Compound I] | 625 | 710 | 250 | 0 |  |
| O=C(O)c1cc[c]([Hg][S]c2ncnc3nc[nH]c23)cc1 [Compound K] | 630 | 680 | 300 | 0 |  |
| CC1=C(Br)C(=O)C(C)=C(Br)C1=O [Compound L] | 375 | 220 | 60 | 0 | activity of Wip1 in the presence of compound (in words) ([1]; 1 μM final concentration): nearly not detectable; Phosphatase Activity (Wip1) ([1]; Compound L at 1 μM final concentration, DMSO control 500): 5 light units @ 590 nm; relative effectiveness as Wip1 inhibitor (in words) [1]: most effective inhibitors; decrease of the activity of PP2A ([2]; 1 μM final concentration): 5%; Phosphatase Activity (PP2A) ([2]; Compound L at 1 μM final concentration, DMSO control 760): 690 light units @ 590 nm |
| Nc1cc[c]([Hg][S]c2nc(N)nc3c2ncn3C2OC(CO)C(O)C2O)cc1 (centres unmarked) [Compound M] | 525 | 400 | 145 | 0 | relative effectiveness as Wip1 inhibitor (in words) [1]: most effective inhibitors |
| O=C1C(Cl)=C(Nc2ccc(S(=O)(=O)Nc3ccccn3)cc2)C(=O)c2ccccc21 [Compound N] |  |  |  | 0 | Wip1 Activity [1]: 645 light units @ 590 nm and 710 light units @ 590 nm and 550 light units @ 590 nm |
| B1 |  |  |  |  | Phosphatase Activity (light units @ 590 nm), DMSO control (light units @ 590 nm) [3]: 500; Wip1 Activity (light units @ 590 nm), DMSO control (light units @ 590 nm) [3]: 1400 and 725 and 740 |
